From patent US5191079A, “Quinolinecarboxylic acid derivatives” (priority 1990, dated 1993)
Converted amounts (≈) assume the structure as drawn. Where a name gives a salt, the structure may show the parent alone.

Key:
[1] = system: Staphylococcus aureus MS-353; assay: MIC, Experiment 1; type: cell-based; settings: MS353, S. aureus MS-353, Gram +, read-out: Min. inhib. concentr. (MIC)
Procedure, shortened: (§1)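 Japan Society of Chemotherapy MIC protocol. Pneumococci: BHI broth preculture, heart infusion agar plus 5% defibrinated horse blood. Staphylococcus/Bacillus: sensitivity test broth preculture, sensitivity test agar.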

[2] = system: Proteus mirabilis IFO 3849; assay: MIC, Experiment 1; type: cell-based; settings: IFO3849, P. mirabilis IFO 3849, Gram -, read-out: Min. inhib. concentr. (MIC)
Procedure, shortened: (§2)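 Standard solutions of 1000 μg/ml were prepared for each compound. Inhibition was then scored under Japan Society of Chemotherapy conditions. S. pneumoniae used brain heart infusion preculture and horse-blood (5%) heart infusion agar. The remaining species used sensitivity test broth and agar.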

[3] = system: Pseudomonas aeruginosa NCTC 10490; assay: MIC, Experiment 1; type: cell-based; settings: NCTC10490, P. aeruginosa NCTC 10490, Gram -, read-out: Min. inhib. concentr. (MIC)
Procedure, shortened: as §2

[4] = system: Streptococcus pneumoniae IID 554; assay: MIC, Experiment 1; type: cell-based; settings: IID554, S. pneumoniae IID 554, Gram +, agar with 5% defibrinated horse blood, read-out: Min. inhib. concentr. (MIC)
Procedure, shortened: as §1

[5] = system: Micrococcus luteus ATCC 9341; assay: MIC, Experiment 1; type: cell-based; settings: ATCC9341, M. luteus ATCC 9341, Gram +, read-out: Min. inhib. concentr. (MIC)
Procedure, shortened: as §2

[6] = system: Staphylococcus aureus Cowan I (IID 975); assay: MIC, Experiment 1; type: cell-based; settings: IID975, S. aureus Cowan I (IID 975), Gram +, read-out: Min. inhib. concentr. (MIC)
Procedure, shortened: as §1

[7] = system: Bacillus subtilis ATCC 6633; assay: MIC, Experiment 1; type: cell-based; settings: ATCC6633, B. subtilis ATCC 6633, Gram +, read-out: Min. inhib. concentr. (MIC)
Procedure, shortened: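 Following the Japan Society of Chemotherapy standard, compounds were diluted in water to 1000 μg/ml standard solutions and tested on agar plates. Sensitivity test broth and agar served the staphylococcal and Bacillus strains. Pneumococci were grown in brain heart infusion broth before testing on heart infusion agar with 5% horse blood.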

[8] = system: Staphylococcus aureus IID 803; assay: Effect on treatment of general infectious disease (systemic infection in mice), Experiment 3; type: in vivo, Staphylococcus aureus; ddY male mice; settings: for protective effects against infection: Experiment 3, in words; for ED50: Staphylococcus aureus, IID803, 168 h, oral, 1 h after i.p. infection, mice, survival after one week, average of several tests, read-out: 50% effective dose (ED50)
Procedure: Staphylococcus aureus IID 803
The test microorganism was subjected to standing culture in Brain heart infusion broth (manufactured by DIFCO) at 37° C. for 16 to 18 hours. The culture was then diluted with PBS (Dulbecco's phosphate buffered saline) to adjust the concentration of bacteria to 4×10^7 -8×10^7 CFU/ml. The mixture was mixed with an equivalent amount of 10% (w/v) Mucin (BACTO MUCIN BACTERIOLOGICAL, manufactured by Difco Co.) to prepare a bacterial suspension. The thus prepared bacterial suspension (0.5 ml each) was intraperitoneally inoculated to ddY male mice (5 weeks age, weighing 24-27 g, 5 mice in each group), to infect the animals, by which systemic infectious model was prepared.
The mice were daily observed for one week, and from the survival number of mice after one week, the 50% effective dose (ED50) was calculated by Weil method. This test was repeated several times and the average of ED50 was calculated.

[9] = Acute toxicity, Experiment 5; type: in vivo; settings: oral, 2000 mg/kg, one week
Procedure: The compound (A) or (B) of the present invention was suspended in distilled water to prepare a suspension in concentration of 200 mg/ml and the compound (C) was suspended in distilled water to prepare a suspension in concentration of 100 mg/ml. The suspension was orally administered to ddY male mice (5 weeks age, weighing 19 to 24 g, 5 mice in each group), which had been fasted for 18 hours, at a rate of 2000 mg/kg body weight of the test compound.

SMILES | MIC [1] | MIC [2] | MIC [3] | MIC [4] | MIC [5] | MIC [6] | MIC [7] | protective effects against infection [8] | ED50 [8] | death of mice [9]
CN1Cc2csc3c(C(=O)O)c(=O)c4cc(F)c(N5CCN6CCOC[C@H]6C5)c1c4n23 [Compound (F), 9,1-(Methylimino)methano-7-fluoro-8-[(6R)-1,8-diaza-4-oxabicyclo[4.4.0]deca-8-yl]-5-oxo-5H-thiazolo[3,2-a]quinoline-4-carboxylic acid] | 0.025 µg/mL (≈ 0.0562 µM) | 0.78 µg/mL (≈ 1.75 µM) | 0.78 µg/mL (≈ 1.75 µM) | 0.05 µg/mL (≈ 0.112 µM) | 0.2 µg/mL (≈ 0.45 µM) | 0.025 µg/mL (≈ 0.0562 µM) | 0.013 µg/mL (≈ 0.0292 µM) | excellent protective effects against infection | 2.3 mg/kg | 
CN1Cc2csc3c(C(=O)O)c(=O)c4cc(F)c(N5CCC(N(C)C)CC5)c1c4n23 [Compound (H), 9,1-(methylimino)methano-7-fluoro-8-(4-dimethylaminopiperidino)-5-oxo-5H-thiazolo[3,2-a]quinoline-4-carboxylic acid] | 0.1 µg/mL (≈ 0.232 µM) | 0.78 µg/mL (≈ 1.81 µM) | 0.78 µg/mL (≈ 1.81 µM) | 0.05 µg/mL (≈ 0.116 µM) | 0.39 µg/mL (≈ 0.906 µM) | 0.05 µg/mL (≈ 0.116 µM) | 0.05 µg/mL (≈ 0.116 µM) |  |  | 
COCC1CN(c2c(F)cc3c(=O)c(C(=O)O)c4scc5n4c3c2N(C)C5)CCN1C (centres unmarked) [Compound (J), 9,1-(Methylimino)methano-7-fluoro-8-(3-methoxymethyl-4-methyl-1-piperazinyl)-5-oxo-5H-thiazolo[3,2-a]quinoline-4-carboxylic acid hydrochloride] | 0.1 µg/mL | 1.56 µg/mL | 1.56 µg/mL | 0.1 µg/mL | 0.39 µg/mL | 0.05 µg/mL | 0.05 µg/mL | excellent protective effects against infection | 4.4 mg/kg | 
CC1CN(c2c(F)cc3c(=O)c(C(=O)O)c4scc5n4c3c2N(C)C5)CCO1 (centres unmarked) [Compound (A), 9,1-(Methylimino)methano-7-fluoro-8-(2-methylmorpholino)-5-oxo-5H-thiazolo[3,2-a]quinoline-4-carboxylic acid] | 0.013 µg/mL (≈ 0.0322 µM) | 0.2 µg/mL (≈ 0.496 µM) | 0.39 µg/mL (≈ 0.967 µM) | 0.05 µg/mL (≈ 0.124 µM) | 0.1 µg/mL (≈ 0.248 µM) | 0.013 µg/mL (≈ 0.0322 µM) | ≤ 0.006 µg/mL | excellent protective effects against infection | 3.5 mg/kg | no death of mice was observed
CN1Cc2csc3c(C(=O)O)c(=O)c4cc(F)c(N5CCOC(CCl)C5)c1c4n23 (centres unmarked) [Compound (D), 9,1-(Methylimino)methano-7-fluoro-8-(2-chloromethylmorpholino)-5-oxo-5H-thiazolo[3,2-a]quinoline-4-carboxylic acid] | 0.013 µg/mL (≈ 0.0297 µM) | 0.39 µg/mL (≈ 0.891 µM) | 0.39 µg/mL (≈ 0.891 µM) | 0.05 µg/mL (≈ 0.114 µM) | 0.05 µg/mL (≈ 0.114 µM) | 0.013 µg/mL (≈ 0.0297 µM) | ≤ 0.006 µg/mL |  |  | 
CN1Cc2csc3c(C(=O)O)c(=O)c4cc(F)c(N5CCC(=O)CC5)c1c4n23 [Compound (G), 9,1-(Methylimino)methano-7-fluoro-8-(4-oxopiperidino)-5-oxo-5H-thiazolo[3,2-a]quinoline-4-carboxylic acid] | ≤ 0.006 µg/mL | 0.2 µg/mL (≈ 0.498 µM) | 0.39 µg/mL (≈ 0.972 µM) | 0.025 µg/mL (≈ 0.0623 µM) | 0.05 µg/mL (≈ 0.125 µM) | ≤ 0.006 µg/mL | ≤ 0.006 µg/mL |  |  | 
CN1CCN(c2c(F)cc3c(=O)c(C(=O)O)c4scc5n4c3c2OC5)CC1 [Compound (Y), 9,1-Epoxymethano-7-fluoro-8-(4-methyl-1-piperazinyl)-5-oxo-5H-thiazolo[3,2-a]quinoline-4-carboxylic acid hydrochloride, reference compound] | 0.1 µg/mL | 0.2 µg/mL | 0.78 µg/mL | 0.2 µg/mL | 1.56 µg/mL | 0.1 µg/mL | 0.1 µg/mL |  | 10.8 mg/kg | 
CN1Cc2csc3c(C(=O)O)c(=O)c4cc(F)c(N5CCO[C@@H](CO)C5)c1c4n23 [Compound (N), 9,1-(Methylimino)methano-7-fluoro-8-[(2R)-2-hydroxymethylmorpholino]-5-oxo-5H-thiazolo[3,2-a]quinoline-4-caboxylic acid] | 0.025 µg/mL (≈ 0.0596 µM) | 0.39 µg/mL (≈ 0.93 µM) | 0.39 µg/mL (≈ 0.93 µM) | 0.05 µg/mL (≈ 0.119 µM) | 0.1 µg/mL (≈ 0.238 µM) | 0.013 µg/mL (≈ 0.031 µM) | ≤ 0.006 µg/mL |  |  | 
CN1Cc2csc3c(C(=O)O)c(=O)c4cc(F)c(N5CCN(C)C(CF)C5)c1c4n23 (centres unmarked) [Compound (K), 9,1-(methylimino)methano-7-fluoro-8-(3-fluoromethyl-4-methyl-1-piperazinyl)-5-oxo-5H-thiazolo[3,2-a]quinoline-4-carboxylic acid hydrochloride] | 0.05 µg/mL | 0.39 µg/mL | 0.78 µg/mL | 0.1 µg/mL | 0.39 µg/mL | 0.05 µg/mL | 0.013 µg/mL |  |  | 
CCOCC1CN(c2c(F)cc3c(=O)c(C(=O)O)c4scc5n4c3c2N(C)C5)CCO1 (centres unmarked) [Compound (Q), 9,1-(Methylimino)methano-7-fluoro-8-(2-ethoxymethylmorpholino)-5-oxo-5H-thiazolo[3,2-a]quinoline-4-carboxylic acid] | 0.1 µg/mL (≈ 0.223 µM) | 1.56 µg/mL (≈ 3.49 µM) | 1.56 µg/mL (≈ 3.49 µM) | 0.39 µg/mL (≈ 0.872 µM) | 0.39 µg/mL (≈ 0.872 µM) | 0.05 µg/mL (≈ 0.112 µM) | 0.05 µg/mL (≈ 0.112 µM) |  |  | 
COC[C@@H]1CN(c2c(F)cc3c(=O)c(C(=O)O)c4scc5n4c3c2N(C)C5)CCO1 [Compound (O), 9,1-(Methylimino)methano-7-fluoro-8-[(2S)-2-methoxymethylmorpholino)-5-oxo-5H-thiazolo[3,2-a]quinoline-4-carboxylic acid] | 0.013 µg/mL (≈ 0.03 µM) | 0.78 µg/mL (≈ 1.8 µM) | 0.78 µg/mL (≈ 1.8 µM) | 0.05 µg/mL (≈ 0.115 µM) | 0.1 µg/mL (≈ 0.231 µM) | ≤ 0.006 µg/mL | 0.013 µg/mL (≈ 0.03 µM) |  |  | 
CN1Cc2csc3c(C(=O)O)c(=O)c4cc(F)c(N5CCO[C@H](CO)C5)c1c4n23 [Compound (M), 9,1-(Methylimino)methano-7-fluoro-8-[ (2S)-2-hydroxymethylmorpholino]-5-oxo-5H-thiazolo[3,2-a]quinoline-4-carboxylic acid] | 0.025 µg/mL (≈ 0.0596 µM) | 0.39 µg/mL (≈ 0.93 µM) | 0.39 µg/mL (≈ 0.93 µM) | 0.05 µg/mL (≈ 0.119 µM) | 0.2 µg/mL (≈ 0.477 µM) | 0.013 µg/mL (≈ 0.031 µM) | ≤ 0.006 µg/mL |  |  | 
CN1Cc2csc3c(C(=O)O)c(=O)c4cc(F)c(N5CCC(O)CC5)c1c4n23 [Compound (L), 9,1-(Methylimino)methano-7-fluoro-8-(4-hydroxypiperidino)-5-oxo-5H-thiazolo[3,2-a]quinoline-4-carboxylic acid] | 0.013 µg/mL (≈ 0.0322 µM) | 0.2 µg/mL (≈ 0.496 µM) | 0.39 µg/mL (≈ 0.967 µM) | 0.05 µg/mL (≈ 0.124 µM) | 0.1 µg/mL (≈ 0.248 µM) | ≤ 0.006 µg/mL | ≤ 0.006 µg/mL |  |  | 
CN1Cc2csc3c(C(=O)O)c(=O)c4cc(F)c(N5CCN(C)C(CO)C5)c1c4n23 (centres unmarked) [Compound (I), 9,1-(Methylimino)methano-7-fluoro-8-(3-hydroxymethyl-4-methyl-1-piperazinyl)-5-oxo-5H-thiazolo-[3,2-a]quinoline-4-carboxylic acid hydrochloride] | 0.39 µg/mL | 0.78 µg/mL | 0.78 µg/mL | 0.05 µg/mL | 0.39 µg/mL | 0.2 µg/mL | 0.1 µg/mL |  |  | 
COC[C@H]1CN(c2c(F)cc3c(=O)c(C(=O)O)c4scc5n4c3c2N(C)C5)CCO1 [Compound (P), 9,1-(Methylimino)methano-7-fluoro-8-[(2R)-2-methoxymethylmorpholino)-5-oxo-5H-thiazolo[3,2-a]quinoline-4-carboxylic acid] | 0.025 µg/mL (≈ 0.0577 µM) | 0.78 µg/mL (≈ 1.8 µM) | 1.56 µg/mL (≈ 3.6 µM) | 0.1 µg/mL (≈ 0.231 µM) | 0.2 µg/mL (≈ 0.461 µM) | 0.006 µg/mL (≈ 0.0138 µM) | ≤ 0.006 µg/mL |  |  | 
